Assay results reported in patent publication US8785402B2, “Compositions and assays for treatment and diagnosis of helicobacter pylori infection and conditions” (Academia Sinica, priority 2009, dated 2014).
Entries after “also recorded” stand apart in the source; their conditions may differ.

Assays:
[1] = system: Le^x antigen in H. pylori; experiment: Anti-Le^x immunoblot of H. pylori lysates after co-culture with AGS cells; format: cell-based, Helicobacter pylori; settings: 100 μM FNJ, DU-152 to DU-157, 12 h, MOI ~400:1
Protocol: (§1) FIGS. 11A-11D collectively show immunoblot analysis of H. pylori-infected Capan 1 and AGS cells with mouse monoclonal anti-Le^x antigen. Capan 1 and AGS cells were infected with different H. pylori strains (from DU-152 to DU-157) that were clinical isolates from six different patients with duodenal ulcer (DU). PBS represents a negative control in the absence of H. pylori. The co-culture was maintained for 12 h at an MOI of ˜400:1. In the parallel experiments, Capan 1 (11a) and AGS cells (11c) were infected under the same conditions. The effect of α-L-fucosidase was evaluated by addition of 100 μM FNJ to the co-cultures of Capan 1 (11b) and AGS cells (11d) with various H. pylori strains. The bacterial cells were collected and lysed for Le^x analysis.
(§2) The secretion of FUCA2 directly results in the extracellular production of L-fucose residues that are then incorporated into H. pylori. It is important to determine if the L-fucose-related biosynthesis is affected at the same time. […] The H. pylori cell lysates were analyzed by SDS-PAGE 12 h after infection and immunoblotted with a Le^x-specific monoclonal antibody. […] In contrast, Le^x-containing glycoproteins were detected in substantial amounts without FNJ treatment (FIGS. 11A and 11C, corresponding to H. pylori-infected Capan 1 and AGS cells, respectively).

[2] = system: Le^x antigen in H. pylori; experiment: Anti-Le^x immunoblot of H. pylori lysates after co-culture with Capan 1 cells; format: cell-based, Helicobacter pylori
Protocol: as §1, §2

[3] = system: H. pylori-infected Capan 1 cells; experiment: Transfer of 6-azido-L-fucose from Capan 1 host cells to H. pylori; format: cell-based, human; settings: Capan 1, 100 μM FNJ
Description: (§3) A considerable proportion of H. pylori in the stomach is located at the epithelial mucosa (Schreiber S, et al. Proc. Natl. Acad. Sci. USA 2004, 101:5024-5029) where there are various fucose-containing oligosaccharides including Lewis antigens. To determine if H. pylori acquires L-fucose from host cells, similar to the interaction between B. thetaiotaomicron and small intestine cells (Hooper, et al. Proc. Natl. Acad. Sci. USA 1999, 96:9833-9838), the click chemistry-based fluorogenic labeling method developed by Wong and coworkers (Sawa M, et al. Proc. Natl. Acad. Sci. USA 2006, 103:12371-12376) was applied to detect fucosylated glycoconjugates. […]
(§4) CagA of H. pylori was the first reported bacterial virulence protein translocated by a type IV secretion system (Stein, et al., Proc. Natl. Acad. Sci. USA 2000, 97:1263-1268). Translocated CagA protein can be detected inside host cells soon after H. pylori attachment. The adhesion efficiency of H. pylori can be thus measured by monitoring the level of translocated CagA inside host cells. […] The epithelial cell lysates were analyzed by SDS-PAGE 6-8 h after infection and immunoblotted with a CagA-specific monoclonal antibody. CagA (˜140 kDa) was detected when mock-transfected Capan 1 cells were infected with each different H. pylori strain (FIG. 7B). […]

[4] = system: H. pylori-infected AGS cells; experiment: Transfer of 6-azido-L-fucose from AGS host cells to H. pylori; format: cell-based, human; settings: 100 μM FNJ
Description: as §3, §4

[5] = system: H. pylori-infected Capan 1 cells; experiment: Immunoblot of translocated CagA (adhesion efficiency of H. pylori) in infected Capan 1 cells; format: cell-based, human; settings: Capan 1, 100 μM FNJ
Protocol: (§5) FIG. 8A-8D collectively provide immunoblot analysis of epithelial cells infected with H. pylori using mouse monoclonal anti-CagA. Capan 1 and AGS cells were infected with different H. pylori strains, including CagA^+ and CagA^−, and various clinical isolates from patients with gastritis (GS), duodenal ulcer (DU) and gastric cancer (GC). PBS represents the negative control. The co-culture was maintained for 6-8 h at an MOI of ˜200:1. In the parallel experiments, Capan 1 (a) and AGS cells (c) were infected under the same conditions. The effect of α-L-fucosidase was evaluated by addition of 100 μM FNJ to the co-cultures of Capan 1 (b) and AGS cells (d) with various H. pylori strains.
(§6) FIG. 9 illustrates immunoblot analysis of H. pylori-infected epithelial cells with mouse monoclonal anti-CagA. Capan 1 and AGS cells were infected with different H. pylori strains that were clinical isolates from five different patients with duodenal ulcer (DU). PBS was used as a negative control in the absence of H. pylori. The co-culture was maintained for 6-8 h at an MOI of ˜200:1. […] The effect of α-L-fucosidase was evaluated by addition of 100 μM of the α-L-fucosidase inhibitor, FNJ, to co-cultures of Capan 1 (b) and AGS cells (d) with the indicated H. pylori strains. […]
as §4, with “7B). Nonetheless, CagA was not detected upon Capan 1-FUCA2 K.D. infection with the different H. pylori strains, with the exception of GS (FIG. 7C).” for “7B).”

[6] = system: H. pylori-infected AGS cells; experiment: Immunoblot of translocated CagA (adhesion efficiency of H. pylori) in infected AGS cells; format: cell-based, human; settings: 100 μM FNJ
Protocol: as §5, §6
as §4, with “7B). Nonetheless, CagA was not detected upon Capan 1-FUCA2 K.D. infection with the different H. pylori strains, with the exception of GS (FIG. 7C).” for “7B).”

human FUT3 and FUT6 = experiment: Anti-Fut 3/6 immunoblot of Capan 1 cells infected with H. pylori; format: cell-based; settings: Capan 1 cells pre-treated with H. pylori and 50 nM FNJ for 4 h
Protocol: Lane A, extract of Capan 1 cells. Lane B, extract of Capan 1 cells pre-treated with H. pylori for 4 h. Lanes C, C′, duplicate independent experiments of extract of Capan 1 cells pre-treated with H. pylori and 50 nM of the α-L-fucosidase inhibitor, FNJ, for 4 h.
L-Fucose is a likely source of utilizable carbon and energy because it is located at the termini of mammalian glycoconjugates. L-Fucose is an abundant component of many host gastric mucosa glycoconjugates (Madrid, et al., J. Histochem. Cytochem 1998, 46:1311-1320) that are constitutively synthesized by host cells. Thus, the “request” from H. pylori to manufacture fucosylated glycans may require the host to activate translation of one or more of its fucosyltransferase proteins.

H. pylori = experiment: Adherence of H. pylori to host cells on treatment of infected cells; format: cell-based, Helicobacter pylori; settings: summary statement; host cells not specified
Description: CagA of H. pylori was the first reported bacterial virulence protein translocated by a type IV secretion system (Stein, et al., Proc. Natl. Acad. Sci. USA 2000, 97:1263-1268). Translocated CagA protein can be detected inside host cells soon after H. pylori attachment. The adhesion efficiency of H. pylori can be thus measured by monitoring the level of translocated CagA inside host cells. Four different epithelial cell lines were chosen for the study, namely mock-transfected Capan 1, Capan 1-FUCA2 K.D., Capan 1, and AGS cells. Isogenic vacA (CagA+), cagA (CagA−) mutants, and clinical isolates from patients with gastritis (GS), duodenal ulcer (DU), and gastric cancer (GC) were selected for co-culturing with the four epithelial cell lines. The epithelial cell lysates were analyzed by SDS-PAGE 6-8 h after infection and immunoblotted with a CagA-specific monoclonal antibody. CagA (˜140 kDa) was detected when mock-transfected Capan 1 cells were infected with each different H. pylori strain (FIG. 7B). Nonetheless, CagA was not detected upon Capan 1-FUCA2 K.D. infection with the different H. pylori strains, with the exception of GS (FIG. 7C). […] In contrast, CagA was detected in substantial amounts without FNJ treatment (FIGS. 8A and 8C, corresponding to the results of Capan 1 and AGS cells, respectively).

[7] = DU strains DU-152, DU-153, DU-154, DU-155, DU-157
[8] = DU- or GC-specific H. pylori strains, 6-8 h, MOI ~200:1
[9] = GS-specific H. pylori strain, 6-8 h

## CC1NC(CN)C(O)C(O)C1O (stereo not shown) [FNJ, 1-aminomethyl-1-deoxy-fuconojirimycin]
[1]
  Le^x-expression level in H. pylori: considerably reduce; also recorded: significantly less
[2]; Capan 1, 100 μM FNJ, DU-152 to DU-157, 12 h, MOI ~400:1
  Le^x-expression level in H. pylori: considerably reduce; also recorded: significantly less
[2]; summary statement, host cells not specified
  level of Le^x-containing glycoproteins in H. pylori: significantly reduced
[3]
  transfer of 6-azido-L-fucose from host cells to H. pylori: considerably reduce
[4]
  transfer of 6-azido-L-fucose from host cells to H. pylori: considerably reduce
[5]; [7]
  CagA present in host cells: no longer present
[5]; [8]
  CagA detected in host cells: no or little CagA was detected
[5]; [9]
  level of CagA: not affected
[6]; [7]
  CagA present in host cells: no longer present
[6]; [8]
  CagA detected in host cells: consistent with those obtained in AGS cells
[6]; [9]
  level of CagA: not affected
Human FUT3 and FUT6
  expression of human FUT3 and FUT6: decreased substantially
H. pylori
  adherence of H. pylori to host cells: effectively prevented adherence
